Results taken from patent US4757087A, “Carbacyclin derivatives” (Sankyo Company Limited, priority 1985, dated 1988).

Tests used:
aspirin-induced ulcer = assay: Effect on aspirin-induced ulcer (Brodie and Chase method); type: in vivo, rats of the Donryu strain (male); conditions: orally, rats, 15 min before 100 mg/kg aspirin, 4 h after aspirin
Procedure: According to a method reported by Brodie and Chase [Gastroenterology 53, 604 (1967)], the anti-ulcer effect was determined. Five male rats of the Donryu strain (body weight 170 to 200 g) were used for each of the control and test compound groups. After being fasted for 24 hours, the rats were orally given certain concentrations of the test compounds and 15 minutes later given orally 100 mg/kg of aspirin (Sanko Pharmaceutical Inc). Four hours after the aspirin administration, the stomach was extracted and expanded with 10 ml of 0.5% formalin. An ulcer index was calculated from the total area of ulceration for the rats of the treated and control groups. The inhibition rate was calculated by comparing the ulcer indices of both groups.

[1] = Acute toxicity testing, intravenous; type: in vivo; conditions: intravenously, 10 mg per kg of body weight, five rats
[2] = system: blood platelet aggregation; conditions: GB 2012265A, U.S. Pat. No. 4,238,414; cited from earlier work
[3] = GB 2012265A, U.S. Pat. No. 4,238,414; cited from earlier work

For C=CCCCC(C)[C@H](O)/C=C/[C@@H]1[C@H]2C/C(=C/CCCC(=O)O)C[C@H]2C[C@H]1O (stereo partly drawn) [Preparative Example 1, 16-Methyl-20-methylenecarbacyclin], the “Inhibition Rate (%)” value (aspirin-induced ulcer; 10 γ/kg (γ = 10^-6 g)) was 45%, the “Inhibition Rate (%)” value (aspirin-induced ulcer; 30 γ/kg (γ = 10^-6 g)) was 95% and the “Inhibition Rate (%)” value (aspirin-induced ulcer; 100 γ/kg (γ = 10^-6 g)) was 98%. For the same compound, the “deaths (acute toxicity)” value [1] was “no deaths occurred”.

With C=CCCCC(C)(C)[C@H](O)/C=C/[C@@H]1[C@H]2C/C(=C/CCCC(=O)O)C[C@H]2C[C@H]1O [Preparative Example 3, 16,16-Dimethyl-20-methylenecarbacyclin] the “Inhibition Rate (%)” value (aspirin-induced ulcer; 30 γ/kg (γ = 10^-6 g)) was 92%.

For CC(C)=CCCCC(C)[C@H](O)/C=C/[C@@H]1[C@H]2C/C(=C/CCCC(=O)O)C[C@H]2C[C@H]1O (stereo partly drawn) [Preparative Example 6, 16-Methyl-20-isopropylidenecarbacyclin], the “Inhibition Rate (%)” value (aspirin-induced ulcer; 30 γ/kg (γ = 10^-6 g)) was 84%.

For CCCCC[C@H](O)/C=C/[C@@H]1[C@H]2C/C(=C/CCCC(=O)O)C[C@H]2C[C@H]1O [Reference Compound A, Carbacyclin], the “Inhibition Rate (%)” value (aspirin-induced ulcer; 100 γ/kg (γ = 10^-6 g)) is listed as 0%, the “Inhibition Rate (%)” value (aspirin-induced ulcer; 300 γ/kg (γ = 10^-6 g)) is listed as 0% and the “inhibition of blood platelet aggregation” value [2] is listed as “inhibition of blood platelet aggregation”. The chemical stability [3] was “chemically stable”.

With CCC=CC[C@H](O)/C=C/[C@@H]1[C@H]2C/C(=C/CCCC(=O)O)C[C@H]2C[C@H]1O [Reference Compound B, 17,18-Didehydrocarbacyclin] the “Inhibition Rate (%)” value (aspirin-induced ulcer; 30 γ/kg (γ = 10^-6 g)) was 15% and the “Inhibition Rate (%)” value (aspirin-induced ulcer; 100 γ/kg (γ = 10^-6 g)) was 47%.

With CC(C)=CCCCC[C@H](O)/C=C/[C@@H]1[C@H]2C/C(=C/CCCC(=O)O)C[C@H]2C[C@H]1O [Reference Compound C, 20-Isopropylidenecarbacyclin] the “Inhibition Rate (%)” value (aspirin-induced ulcer; 300 γ/kg (γ = 10^-6 g)) was 4%.

In the case of CC(C)=CCCC(C)C[C@H](O)/C=C/[C@@H]1[C@H]2C/C(=C/CCCC(=O)O)C[C@H]2C[C@H]1O (stereo partly drawn) [Reference Compound D, 17-Methyl-20-isopropylidenecarbacyclin], the “Inhibition Rate (%)” value (aspirin-induced ulcer; 30 γ/kg (γ = 10^-6 g)) is reported as 30% and the “Inhibition Rate (%)” value (aspirin-induced ulcer; 100 γ/kg (γ = 10^-6 g)) is reported as 98%.
